The test system of assay [1] is Diels-Alderase DA_20_10, variant of DA_20_00 (Loligo vulgaris diisopropylfluorophosphatase scaffold, SEQ ID NO:2) with A21T/A74I/S271A/A173C/Q149R/A272N, SEQ …. In words: Kinetics of Diels-Alder reaction catalysed by optimized DA_20_10. The class given is biochemical. The note with it: 298K. The procedure:
(A) Dependence of reaction velocity on diene concentration for different fixed dienophile concentrations. The diene concentration was varied from 3.0 to 0.18 mM with a fixed concentration of 100 mM (⋄), 66 mM (Δ), 44 mM (⋄), 30 mM (◯), 20 mM (◯), or 13 mM (●) dienophile (B) Dependence of reaction velocity on dienophile concentration for different fixed diene concentrations. The dienophile was varied from 100 to 13.0 mM with a fixed concentration of 3 mM (♦), 2 mM (▴), 1.3 mM (∇), 0.9 mM (Δ), 0.6 mM (⋄), 0.4 mM (□), 0.26 mM (◯), or 0.18 mM (●) […]. Reactions were carried out with 20 μM protein in PBS at 298 K.
(§1) The Diels-Alder reactions were performed in PBS, at 25° C., with 4% DMSO. The DMSO came from the diene, for which the stock solution (100 mM) was made in DMSO and always diluted such that the final reaction would contain 4% DMSO. After incubation of the desired amount of diene and dienophile in the presence or absence of the protein, time points were taken of the reaction (5 μL) and quenched in a solution of 80:20 acetonitrile:water with 0.1% formic acid and 1 mM Benzoic Acid (95 μL). This reaction was incubated for 5 minutes and then the precipitated protein filtered using a Millipore multiscreen solvinert filter plate (Product Number: MSRLN0450). 20 μL of the filtered quench solution was then injected and analyzed using a liquid chromatography-tandem mass spectroscopy (LC-MSMS) assay.
To summarize the optimization rounds, residues contacting the transition state in DA—20—00 were mutated individually to sets of residues predicted to retain or improve transition state binding and bolster the two catalytic residues. […] Three of the mutations (FIG. 6C) likely improve the packing around the transition state (A741, A21 T) or catalytic glutamine (A173C). Two of the mutations likely improve the overall electrostatic complementarity with the bound substrates and transition state: Q149R hydrogen bonds to the carboxylate on the diene and S271A makes the dienophile environment more non polar.
The kinetics of the DA—20—10 catalyzed reaction was characterized by measuring the dependence of the reaction velocity on the concentration of both diene and dienophile. The effective molarity (kcat/kuncat) of DA—20—10 is 100 M, and the rate enhancement (kcat/(kuncat*KM_diene)) in the presence of saturating dienophile and limiting diene is 1.0×10^5. At high substrate concentrations DA—20—10 proceeds for more than 30 turnovers before the enzyme loses activity. At higher enzyme concentrations more than 80% of the diene substrate is converted to product.
The errors represent the calculated 95% confidence interval. The parameter a describes the cooperativity of binding between the two substrates: a value greater than one indicates negative cooperativity, whereas a value lower then one indicates positive cooperativity. α could not be determined for DA—20—00. Kinetic parameters for catalytic antibodies 7D4 and 4D5 were taken from (10, 17).

Assay [2] deals with Diels-Alderase DA_20_00, computational design on Loligo vulgaris diisopropylfluorophosphatase scaffold (PDB-ID 1E1A, SEQ ID NO:2), SEQ ID NO:4. In words: Kinetics of Diels-Alder reaction catalysed by original design DA_20_00. The class given is biochemical. The note with it: 298K, PBS, error = 95% confidence interval. On the procedure:
as §1
This active design (DA—20—00) was created from a 6-bladed beta barrel propeller scaffold (PDB-ID 1E1A; a diisopropylfluorophosphatase from Loligo vulgaris). […]
The errors represent the calculated 95% confidence interval. The parameter a describes the cooperativity of binding between the two substrates: a value greater than one indicates negative cooperativity, whereas a value lower then one indicates positive cooperativity. α could not be determined for DA—20—00. […]

Assay [3] concerns catalytic antibody mAb 4D5. The note with it: 310K, cited from earlier work.
Assay [4] has as its system catalytic antibody mAb 7D4. The note with it: 310K, cited from earlier work.

The term kcat denotes the maximal rate divided by the concentration of active sites. In general, Km refers to the substrate concentration at which the rate is half of its maximum.

`C=C/C=C/NC(=O)OCc1ccc(C(=O)O)cc1` [diene, 4-carboxybenzyl trans-1,3-butadiene-1-carbamate]: the kcat in assay [1] (PBS, 20 μM protein, diene + dienophile reaction, error = 95% confidence interval) is 0.000678 ± 8.3e-05 s⁻¹; in assay [2] (diene + dienophile reaction), 2.8e-06 ± 5.6e-07 s⁻¹; in assay [3] (diene + dienophile reaction), 5.83e-05 s⁻¹; in assay [4] (diene + dienophile reaction), 5.83e-05 s⁻¹. Moreover, the Michaelis constant (Km) in assay [1] (PBS, 20 μM protein, error = 95% confidence interval, read-out: KM-diene) was 980 ± 200 µM; in assay [2] (read-out: KM-diene), 3530 ± 1500 µM; in assay [3] (read-out: KM-diene) it was 1600 µM; in assay [4] (read-out: KM-diene), 960 µM. Also, the “a (cooperativity of binding between the two substrates)” value is reported as 1.7 ± 0.7 in assay [1] (diene and dienophile, >1 indicates negative cooperativity); 1 in assay [3] (diene and dienophile); 1 in assay [4] (diene and dienophile). For the same compound, the “effective molarity (kcat/kuncat)” value in assay [1] (diene + dienophile reaction) is reported as 100 M.

(Values after patent US8688427B2, “Enzyme catalysts for diels-alder reactions” (University of Washington, priority 2008, dated 2014).)
